In PMC10820135, “Pharmacokinetic, Tissue Distribution, Metabolite, and Toxicity Evaluation of the Matrine Derivative, (6aS, 10S, 11aR, 11bR, 11cS)-10-Methylaminododecahydro-3a, 7a-Diaza-benzo (de) Anthracene-8-thione” (Molecules, 2024):

Assay: Stability of MASM in plasma QC samples
Type: in vitro ADME
Conditions: QC samples: autosampler 4℃ 8 h, -80℃ 30 days, three freeze-thaw cycles
Procedure: determined by calculating the RSD of 6 samples analyzed on the same day, while the inter-day precision was determined by calculating the RSD of 3 analytical batches analyzed over 3 consecutive days.
1.4 Extraction recovery and matrix effect
The extraction recovery was in assessed by comparing the peak area of the blank […]
i n E q . […]
Extraction recovery=Ap/Ax×100% Eq. (1)
Matrix effect=Ax/As×100% Eq. (2)
Ap: 10 μl of high (H), medium (M), and low (L) concentration of standard solution and 300 μl of IS were added to 90 μl of blank plasma, respectively, then pre-processed by sample pretreatment method and injected to obtain the peak area A p. […]
The stability of analytes in plasma was assessed by analyzing peak area in three different concentration QC samples. The long-term stability was evaluated by analyzing samples that had been stored at a temperature of -80℃ for a duration of 30 days. […]
freeze-thaw stability was assessed by analyzing samples that had undergone three freeze-thaw cycles, transitioning from a temperature of -80℃ to 25℃. Post-preparative stability was assessed by analyzing samples that had been stored in the autosampler at 4℃ for a duration of 8 h. […]
0.990 across the relevant concentration ranges (Supplementary Table S1). The lower limit of the quantitation (LLOQ) was determined to be 5.03 ng/ml. […]

In the case of CNC1CC(=S)N2CC3CCCN4CCCC(C34)C2C1 [MASM, (6aS, 10S, 11aR, 11bR, 11cS)-10-methylaminododecahydro-3a, 7a-diaza-benzo (de) anthracene-8-thione], the stability in plasma is reported as “stable”.
